Source: US6338963B1, “Use of carbon monoxide dependent guanylyl cyclase modifiers to stimulate neuritogenesis” (NeoTherapeutics, Inc., priority 1994, dated 2002)

What was measured:
[1] = system: C57BL/6 mice; experiment: Ethanol-induced working memory deficit (win-shift); assay type: in vivo; conditions: Ethanol 0.5 gm/kg i.p. ten minutes prior to testing
Description: Six month old male C57BL/6 mice were evaluated in the win-shift model in combination with treatment with ethanol, a non-specific memory suppressant, and AIT-082. Subjects were treated with saline (control) or AIT-082 (30 mg/kg. i.p.) 1 hour prior to testing. Ethanol was administered at a dose of 0.5 gm/kg i.p. ten minutes prior to testing.

[2] = system: neocortical astrocytes; experiment: NGF-like immunoreactivity in astrocyte culture medium (ELISA); assay type: cell-based, mouse; conditions: astrocytes incubated with different concentrations
Description: Astrocytes appear to proliferate in response to extracellular guanosine or guanosine triphosphate (GTP). GTP or guanosine may also stimulate the release of trophic factors from cultures of neocortical astrocytes from neonatal mouse brains. Astrocytes were incubated with different concentrations of guanosine or GTP respectively. Neurotrophin imunoreactivity in the culture medium from treated cells was then measured by ELISA.
Briefly, 96 well Falcon plates (Fisher) were coated with […] of sheep mono-specific anti-NGF IgG (affinity column purified) contained in 0.1M sodium carbonate buffer pH 9.6. After an overnight incubation at 4° C. blocking solution (PBS with 10% goat serum) was added to remove excess antibody. After a four hour incubation at room temperature the plates were washed three times with PBS containing 0.05% Tween 20. The conditioned media and standard 2.5S HPLC purified NGF were added and incubated overnight. The next day plates were washed 3 times with PBS-0.05% Tween 20. The secondary antibody, rabbit mono-specific anti-NGF IgG conjugated with β-galactosidase (Pierce-SPDP method) (1:500 dilution) was added. The plates were incubated overnight at 4° C. The next day the plates were washed 3 times with PBS-0.05% Tween 20. […]
The ELISA assay detected neurotrophins NGF and NT-3 with ahnost equal affinity and BDNF with 100 times less affinity. […]

[3] = system: PC12 cells; experiment: Neuritogenesis in PC12 cells; assay type: cell-based, rat
Description: Much of the work performed in the characterization of the compounds of the present invention involved the use of PC12 cells. These cells are derived from a rat pheochromocytoma and when grown in the presence of NGF, extend neurites, cease cell division and assume many characteristics of sympathetic neurons. When cultured in the absence of nerve growth factor (NGF), few PC12 cells have neurites greater than one cell diameter. Addition of saturating concentrations of NGF for 48 hours stimulates neurite outgrowth in about 20-35% of the cells. Because they constitute a homogeneous population of neuronal-like cells, without contaminating astroglia type cells, it is possible to study the direct effects of the purine based compounds on neurite outgrowth in these cells.
Cells cultured in RPMI 1640 with 1.5% horse serum and 1.5% fetal bovine serum were re-plated onto poly-ornithine coated 24-well culture plates (2.5×10^4 cells per well). AIT-082 and NGF were added to the various cultures immediately upon plating. After 48 hours, medium was removed and the cells irnmediately fixed in 10% formalin and PBS for 10 minutes. Cells and neurites were counted within 2 days of fixation.
A neurite was defined as a process extending from the cell at least 1 cell body diameter in length and displaying a growth cone at its tip. For each treatment, 2 representative microscope fields were counted from each of 6 sister cultures receiving identical treatments. The total number of cells counted per well (approximately 100 cells) and the total number of cells containing neurites in each well were used to determine fraction of neurite-bearing cells. The mean values (±SEM) were then determined for each of the treatments. To facilitate comparison neurite outgrowth was expressed relative to the proportion of cells bearing neurites in the presence of NGF alone (NGF=100%). The effects of compounds with and without NGF were compared by analysis of variance (ANOVA) followed by Tukey's test for significance.
The results are shown in FIG. 3 where the curve represents different levels of AIT-082 plus saturating concentrations (40 ng/ml) NGF. The center horizontal line represents control values for cells cultured in the presence of 40 ng/ml NGF alone. Upper and lower horizontal lines are indicative of confidence limits of NGF alone as determined using standard statistical methods.

[4] = system: rat cultured astrocytes; experiment: Release of radioactively labeled adenine-based purines from rat cultured astrocytes; assay type: cell-based; conditions: 300 μM
[5] = system: cGMP levels in PC12 cells; experiment: cGMP levels in PC12 cells (radioimmunoassay); assay type: cell-based, rat; conditions: NGF-primed PC12 cells
Description: Initially, PC-12 cells were primed with 40 ng/ml NGF for 3 days in low serum medium (1.5% horse serum+5% fetal calf serum). Cells were seeded onto assay plates in low serum medium containing 40 ng/ml NGF and incubated for 1 hour. The medium was changed to low arginine medium (80 μM) with no serum and NGF and papaverine ([…]) where indicated. Test compounds were added for the indicated time and the reaction was stopped by adding 5% TCA containing 10,000 dpm of ^3H-cGMP. cGMP was assayed by the radioimmunoassay method of Maurice (Mol. Pharmacol. 37: 671-681, 1990). TCA was purified by adding powdered charcoal (5 g) and filtering the mixture through Whatman #1 paper. This removed contaminants in the TCA that otherwise interfere with the radioimmunoassay (RIA) of cGMP.
It was necessary to purify the cGMP from cAMP and other contaminants before radioimmunoassay since these other materials can interfere with the assay. Briefly, the TCA solution was applied to Dowex columns (50W-8X, 200-400 mesh) and eluted. A neutral alumina column was then placed under each Dowex column. The cGMP was eluted from the Dowex columns into neutral alumina columns by adding 4 mL of 0.05 M HCl to each Dowex column. The neutral alumina columns were then sequentially rinsed with 2 ml of HCl, 4 mL water and finally with 0.2 M sodium acetate (pH 6.2). The cGMP collected for the RIA eluted in 1 ML of sodium acetate with a recovery between 50-65%. The cGMP was assayed using a Dupont RIA kit.

[6] = system: rat cultured astrocytes; experiment: Release of radioactively labeled adenine-based purines from rat cultured astrocytes; assay type: cell-based; conditions: 300 μM, 1 hour
Description: The experiments were carried out on cultured astrocytes of rat hippocampus at the fourth day in vitro (DIV), obtained from primary cultures replated in 35 mm Petri dishes ([…] cells/dish) and preloaded with [^3H]-adenosine (5×10^−8 M for a specific activity of 20.0 Ci/mM) for 30 minutes at 37° C.
The effect of AIT-082 on the proportional release of radioactively labeled adenine nucleosides and nucleotides from rat cultured astrocytes is shown in FIGS. 29A and 29B. Culture medium collected during the first hour of the release was analyzed by high performance liquid chromatography (HPLC) and the radioactivity associated with the different adenine compounds was measured and expressed as a percentage of the total radioactivity released. The results are shown for ATP, ADP, and AMP in FIG. 29A, and for adenosine, inosine, and hypoxanthine in FIG. 29B.

[7] = system: mice; experiment: T-maze memory test with atropine co-administration; assay type: in vivo; conditions: AIT-082 30 mg/kg i.p. 2 hr prior; atropine 0.5 mg/kg i.p. 1/2 hour prior to testing, day 3
Description: To elucidate the mechanisms by which AIT-082 improves memory, attempts were made to block its actions by co-administration of the short-acting cholinergic antagonist atropine to mice and subjecting them to simple learning tests. Atropine reportedly has the ability to block the effects of physostigmine and THA. Mice were injected with AIT-082 (30 mg/kg) 2 hr prior to testing on days 1 through 4. Atropine (0.5 mg/kg) was injected ½ hour prior to testing or 1.5 hours after AIT-082 on day 3 only. All injections were i.p. After a reference run to determine where the reward was placed in a T-maze, the mice were retested to determine if they could remember the location of the reward. The percentage of correct responses is graphically represented in FIG. 2.

CCO [Ethanol, ethanol, reference compound]
Correct trials (mean number of correct responses per 10 trials ± S.E.) [1]: 6.5 ± 26

Nc1nc2c(ncn2[C@@H]2O[C@H](COP(=O)(O)OP(=O)(O)OP(=O)(O)O)[C@@H](O)[C@H]2O)c(=O)[nH]1 [GTP, guanosine triphosphate, reference compound]
NGF-like immunoreactivity in the culture medium [2]: increased the amount of NGF-like immunoreactivity
neurite outgrowth in the absence of NGF ([3]; compound alone): elicited neurite outgrowth on its own
enhancement of NGF-induced neurite outgrowth ([3]; in the presence of NGF, 48 hours): did enhance neuritogenesis in the presence of NGF
ADP, radioactivity released in the culture medium ([4]; 1 hour): 2.10 ± 0.31 cpm × 10^3
AMP, proportional release ([4]; 1 hour): (23.5 ± 2.4) percentage of the total [^3H]-purines released
AMP, radioactivity released in the culture medium ([4]; 1 hour): 2.76 ± 0.28 cpm × 10^3
ATP, proportional release ([4]; 1 hour): (10.9 ± 1.1) percentage of the total [^3H]-purines released
ATP, radioactivity released in the culture medium ([4]; 1 hour): 1.28 ± 0.13 cpm × 10^3
Adenosine, radioactivity released in the culture medium ([4]; 1 hour): 0.47 ± 0.06 cpm × 10^3
Hypoxanthine, proportional release ([4]; 1 hour): (18.4 ± 2.6) percentage of the total [^3H]-purines released
Hypoxanthine, radioactivity released in the culture medium ([4]; 1 hour): 2.20 ± 0.31 cpm × 10^3
Inosine, radioactivity released in the culture medium ([4]; 1 hour): 1.65 ± 0.2 cpm × 10^3
ADP, proportional release ([4]; 3 hours): (8.6 ± 0.7) percentage of the total [^3H]-purines released
ADP, radioactivity released in the culture medium ([4]; 3 hours): 1.05 ± 0.09 cpm × 10^3
AMP, proportional release ([4]; 3 hours): (40.0 ± 3.9) percentage of the total [^3H]-purines released
AMP, radioactivity released in the culture medium ([4]; 3 hours): 4.32 ± 0.48 cpm × 10^3
ATP, proportional release ([4]; 3 hours): (4.4 ± 0.4) percentage of the total [^3H]-purines released
ATP, radioactivity released in the culture medium ([4]; 3 hours): 0.54 ± 0.05 cpm × 10^3
Adenosine, proportional release ([4]; 3 hours): (2.5 ± 0.2) percentage of the total [^3H]-purines released
Adenosine, radioactivity released in the culture medium ([4]; 3 hours): 0.31 ± 0.02 cpm × 10^3
Hypoxanthine, proportional release ([4]; 3 hours): (25.0 ± 3.7) percentage of the total [^3H]-purines released
Hypoxanthine, radioactivity released in the culture medium ([4]; 3 hours): 3.11 ± 0.45 cpm × 10^3
Inosine, proportional release ([4]; 3 hours): (9.7 ± 1.2) percentage of the total [^3H]-purines released
Inosine, radioactivity released in the culture medium ([4]; 3 hours): 1.19 ± 0.19 cpm × 10^3
cGMP in PC12 cells [5]: did not increase levels of cGMP
ADP, proportional release [6]: (17.8 ± 2.6) percentage of the total [^3H]-purines released
Adenosine, proportional release [6]: (4.0 ± 0.5) percentage of the total [^3H]-purines released
Inosine, proportional release [6]: (14.0 ± 1.7) percentage of the total [^3H]-purines released

CN1[C@@H]2CC[C@H]1C[C@@H](OC(=O)C(CO)c1ccccc1)C2 (stereo partly drawn) [atropine]
effect of atropine on memory enhancement by AIT-082 [7]: blocked the memory enhancing activity of AIT-082
